Test results as given in ChEMBL document CHEMBL1201862, “PubChem BioAssay data set” (2004).
Active and inactive are the calls of the source. For most assays here, no stated cut-off is given here; in the data, actives have a measured EC50 and inactives only a lower limit.

What was measured:
[1] = system: Streptococcus; experiment: GAS UMAA2166 growth inhibition – luminescence, BacTiterGlo, counter-screen for streptokinase expression inhibitor project, dose response (AID 1915); format: functional, organism-based;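 further: potency for reduction of bacterial viability or growth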
[2] = system: Streptococcus sp. 'group A'; experiment: Streptococcus pyogenes SK(-)GAS viability under kanamycin – luminescence, BacTiterGlo, confirmation, counter-screen for streptokinase expression inhibitor project, dose response (AID 1900); format: functional, organism-based
[3] = molecular target: T1, Corticotropin-releasing factor receptor 2/Corticotropin-releasing factor-binding protein (Homo sapiens, UniProt P24387+Q13324); experiment: Dose Response confirmation of uHTS hits for small molecule antagonists of the CRF-binding protein and CRF-R2 receptor complex.; format: functional; details: read-out: IC50_Mean
T1 sequence (Q13324 whole entry): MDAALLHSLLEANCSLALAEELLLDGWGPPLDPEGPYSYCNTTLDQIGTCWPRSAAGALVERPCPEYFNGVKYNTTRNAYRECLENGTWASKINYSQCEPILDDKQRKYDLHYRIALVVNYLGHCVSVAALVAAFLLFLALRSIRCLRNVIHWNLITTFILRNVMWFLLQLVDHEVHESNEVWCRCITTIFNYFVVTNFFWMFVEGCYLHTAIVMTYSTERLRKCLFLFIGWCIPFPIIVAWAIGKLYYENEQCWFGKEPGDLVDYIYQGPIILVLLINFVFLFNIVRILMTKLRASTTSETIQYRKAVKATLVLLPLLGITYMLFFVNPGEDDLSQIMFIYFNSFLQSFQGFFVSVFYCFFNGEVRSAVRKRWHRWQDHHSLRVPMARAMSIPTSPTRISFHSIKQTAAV
T1 sequence (P24387 whole entry): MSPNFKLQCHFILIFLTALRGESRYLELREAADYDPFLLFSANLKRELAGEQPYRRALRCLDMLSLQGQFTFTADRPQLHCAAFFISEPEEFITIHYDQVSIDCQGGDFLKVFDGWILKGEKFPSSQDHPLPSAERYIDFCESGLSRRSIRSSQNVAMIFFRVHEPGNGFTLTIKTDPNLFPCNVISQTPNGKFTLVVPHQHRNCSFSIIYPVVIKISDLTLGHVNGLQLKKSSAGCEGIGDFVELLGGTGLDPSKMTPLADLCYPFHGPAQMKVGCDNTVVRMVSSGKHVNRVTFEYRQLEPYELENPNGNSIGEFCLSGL

[4] = molecular target: T1, Corticotropin-releasing factor receptor 2/Corticotropin-releasing factor-binding protein; experiment: activators of CRF receptor 2 with binding protein – uHTS hits, confirmation (AID 602473); format: functional; details: read-out: EC50_Mean
[5] = molecular target: T2, Protein RecA (Mycobacterium tuberculosis, UniProt P9WHJ3); experiment: Fluorescence Cell-Free Homogeneous Dose Retest to Identify Inhibitors of RecA-Intein Splicing Activity. [Related pubchem assays (depositor defined):AID2097, AID2223, AID489010, AID492950]; format: functional
T2 sequence (P9WHJ3 whole entry): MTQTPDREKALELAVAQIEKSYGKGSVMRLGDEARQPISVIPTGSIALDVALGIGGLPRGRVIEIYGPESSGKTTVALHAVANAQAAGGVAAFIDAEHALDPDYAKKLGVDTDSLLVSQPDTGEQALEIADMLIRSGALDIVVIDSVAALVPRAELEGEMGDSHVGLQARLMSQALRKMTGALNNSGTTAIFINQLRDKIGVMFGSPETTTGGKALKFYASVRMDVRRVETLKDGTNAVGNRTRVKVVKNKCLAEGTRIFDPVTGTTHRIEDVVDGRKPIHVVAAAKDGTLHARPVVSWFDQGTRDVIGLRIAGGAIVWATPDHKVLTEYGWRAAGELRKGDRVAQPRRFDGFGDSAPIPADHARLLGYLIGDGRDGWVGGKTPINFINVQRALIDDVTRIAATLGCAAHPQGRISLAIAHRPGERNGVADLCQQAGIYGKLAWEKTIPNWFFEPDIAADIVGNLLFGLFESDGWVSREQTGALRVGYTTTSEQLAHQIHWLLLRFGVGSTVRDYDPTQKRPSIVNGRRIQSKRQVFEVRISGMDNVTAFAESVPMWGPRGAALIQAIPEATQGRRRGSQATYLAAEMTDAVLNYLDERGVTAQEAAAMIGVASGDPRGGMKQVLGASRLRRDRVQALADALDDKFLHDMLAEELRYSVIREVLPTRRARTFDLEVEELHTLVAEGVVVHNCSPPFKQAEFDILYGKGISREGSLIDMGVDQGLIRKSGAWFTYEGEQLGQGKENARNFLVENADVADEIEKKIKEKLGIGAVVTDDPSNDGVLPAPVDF

[6] = molecular target: T3, Replicative DNA helicase DnaB (Mycobacterium tuberculosis, UniProt P9WMR3); experiment: DnaB intein splicing inhibitors, dose response, biochemical, cell-free fluorescence (AID 449749); format: functional
T3 sequence (P9WMR3 whole entry): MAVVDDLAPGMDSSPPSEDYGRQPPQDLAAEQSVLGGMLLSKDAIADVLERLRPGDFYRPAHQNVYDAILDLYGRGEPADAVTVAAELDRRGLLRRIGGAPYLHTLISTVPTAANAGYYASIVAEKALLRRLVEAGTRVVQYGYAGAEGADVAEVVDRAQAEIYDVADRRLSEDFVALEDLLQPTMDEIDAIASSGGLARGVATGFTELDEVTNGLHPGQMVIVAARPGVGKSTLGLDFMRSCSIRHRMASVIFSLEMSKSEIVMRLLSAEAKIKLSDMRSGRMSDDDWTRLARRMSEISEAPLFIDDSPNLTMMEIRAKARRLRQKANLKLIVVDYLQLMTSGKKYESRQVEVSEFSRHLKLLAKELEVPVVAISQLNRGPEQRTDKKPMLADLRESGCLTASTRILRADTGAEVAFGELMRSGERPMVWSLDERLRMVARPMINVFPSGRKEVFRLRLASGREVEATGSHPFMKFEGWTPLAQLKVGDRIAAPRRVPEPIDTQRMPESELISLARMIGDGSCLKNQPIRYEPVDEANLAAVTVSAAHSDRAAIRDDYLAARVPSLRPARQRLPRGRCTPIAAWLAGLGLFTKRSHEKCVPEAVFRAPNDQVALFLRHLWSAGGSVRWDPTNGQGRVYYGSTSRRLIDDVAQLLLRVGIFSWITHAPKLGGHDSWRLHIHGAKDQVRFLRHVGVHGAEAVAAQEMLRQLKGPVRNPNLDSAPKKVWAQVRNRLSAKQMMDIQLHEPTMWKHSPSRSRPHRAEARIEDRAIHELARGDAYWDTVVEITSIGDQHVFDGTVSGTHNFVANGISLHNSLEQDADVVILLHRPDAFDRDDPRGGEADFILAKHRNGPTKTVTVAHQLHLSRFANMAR

[7] = Trypanosoma cruzi growth suppression in host cells – NIH3T3 host cells, beta-gal luminescence, confirmation (AID 2044); format: functional, cell-based;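 further: intracellular parasites grown in NIH/3T3 mouse fibroblasts as host cells; luminescent beta-galactosidase reporter signal from transgenic T. cruzi replicating inside host cells; inhibitors lower the luminescence signal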
[8] = NIH3T3 cell viability loss – ATP luminescence, mouse fibroblasts, counter-screen, dose response (AID 2010); format: functional, cell-based;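 further: cells exposed to compound for about 90 hours before reading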
[9] = molecular target: T4, Heat shock factor protein 1 (Mus musculus, UniProt P38532); experiment: enhancement of HSF1-driven luciferase signal – cell-based, NIH3T3, luminescence, dose retest, confirmation (AID 435004); format: functional;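 further: stress induced by proteasome inhibitor MG132 added 30 min after compound; luciferase reporter driven by HSF1 response element in NIH3T3 cells; actives raise luminescence as potentiators of the MG132 stress response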
T4 sequence (P38532 whole entry): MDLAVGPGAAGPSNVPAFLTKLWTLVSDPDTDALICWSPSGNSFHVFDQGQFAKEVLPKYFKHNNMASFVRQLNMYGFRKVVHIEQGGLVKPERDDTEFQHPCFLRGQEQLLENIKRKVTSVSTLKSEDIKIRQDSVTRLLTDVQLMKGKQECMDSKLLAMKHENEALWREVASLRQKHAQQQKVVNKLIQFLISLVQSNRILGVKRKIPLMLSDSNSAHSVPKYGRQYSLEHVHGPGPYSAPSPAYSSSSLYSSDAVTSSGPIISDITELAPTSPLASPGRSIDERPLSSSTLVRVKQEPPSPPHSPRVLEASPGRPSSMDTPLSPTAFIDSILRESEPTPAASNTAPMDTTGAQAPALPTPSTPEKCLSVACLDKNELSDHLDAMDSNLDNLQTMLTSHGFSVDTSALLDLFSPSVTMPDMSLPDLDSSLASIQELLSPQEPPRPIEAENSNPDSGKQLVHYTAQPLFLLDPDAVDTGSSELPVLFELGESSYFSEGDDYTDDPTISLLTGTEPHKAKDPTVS

[10] = system: INS1; experiment: INS-1E survival protection against cytokine death – cell-based, luminescence, retest, dose response (AID 449756); format: functional; details: Rattus norvegicus;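 further: cell death triggered by IL-1 beta plus TNF-alpha plus IFN-gamma mixture; protective hits raise ATP signal compared with cytokine alone wells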

With O=C(Nc1cc([N+](=O)[O-])ccc1O)c1cccc(NC(=O)c2ccco2)c1 the EC50 [1] was 6.8 µM (active) and the EC50 [2] was 5.58 µM (active).

For Cc1cc(C)cc(NC(=O)C2CCCN(c3nccc(C)n3)C2)c1 (configuration not stated), the IC50 [3] was > 47.1 µM (inactive) and the EC50 [4] was > 53 µM (inactive).

For Cn1c(-c2ccc(-c3ccccc3)cc2)c[nH]c1=S, the IC50 [3] was > 47.1 µM (inactive) and the EC50 [4] was > 53 µM (inactive).

With COc1ccc(Cl)cc1NC(=O)c1ccoc1C the IC50 [3] was > 47.1 µM (inactive) and the EC50 [4] was > 53 µM (inactive).

In the case of Cc1cc2[nH]ncc2cc1NC(=S)NC(=O)c1ccccc1, the EC50 [5] is reported as > 380 µM (inactive) and the AC50 [6] is reported as 178 µM (active).

With Nc1ccc2nc(N3CCOCC3)sc2c1 the EC50 [5] was 23.7 µM (active), the AC50 [6] was 93.7 µM (active) and the EC50 [7] was 1.96 µM (active). For the same compound, the EC50 [8] was 5.16 µM (active).

In the case of COC(=O)Nc1ccc(S(=O)(=O)N2CCC(C(=O)N3CCCC(C)C3)CC2)cc1 (configuration not stated), the EC50 [9] is reported as > 260 µM (inactive).

With Cc1ccc(N2C(=O)SC(N(CC(=O)O)c3ccc(C)cc3)C2=O)cc1 (configuration not stated) the EC50 [9] was > 260 µM (inactive).

For COc1cc(CNC2CCCC2)cc(OC)c1, the EC50 [9] was > 260 µM (inactive).

In the case of CN(C)C(=O)c1ccc(=O)n(Cc2ccc(Cl)cc2Cl)c1, the EC50 [9] is reported as > 260 µM (inactive).

For O=C(O)c1ccc(N(Cc2ccccc2)S(=O)(=O)c2ccccc2)cc1, the EC50 [9] was > 260 µM (inactive).

For NCCCCCc1nnc(SC/C=C/c2ccccc2)o1, the EC50 [9] was > 260 µM (inactive).

In the case of C#CCOCCOCCOCCNc1nc(N2CCN(C(=O)Cn3cc(CCO)nn3)CC2)nc(N2CCN(C(=O)[C@H](CCCCN)n3cc(CC(C)O)nn3)CC2)n1 (some centres not stated), the IC50 [3] is reported as > 47.1 µM (inactive) and the EC50 [4] is reported as > 53 µM (inactive).

In the case of CCC1=Nc2cc(C(=O)NCCN3CCCC3)ccc2Sc2ccccc21, the EC50 [5] is reported as > 380 µM (inactive) and the AC50 [6] is reported as > 380 µM (inactive).

With O=c1oc(CCO)cc2ccc(Br)cc12 the IC50 [3] was > 47.1 µM (inactive) and the EC50 [4] was > 53 µM (inactive).

With COc1cccc(N(CC(=O)N2CCc3ccccc3C2)S(C)(=O)=O)c1 the EC50 [9] was > 260 µM (inactive).

With CC1=NNC(=O)C1C(c1ccc(F)cc1)C(C#N)C#N (configuration not stated) the EC50 [5] was 2.83 µM (active) and the AC50 [6] was 7.09 µM (active).

With Cc1n[nH]c(=S)n(/N=C/c2cccs2)c1=O the IC50 [3] was > 47.1 µM (inactive) and the EC50 [4] was > 53 µM (inactive).

For Cn1cccc1/C=N/NC(=O)Cc1cccs1, the AC50 [10] was > 260 µM (inactive).
